The results in this text go back to publication PMC3757949 (Nature medicine, 2012).

A value given as a limit tells only on which side of the number the result lay.

Series [1] has as its target T1, GLP-1R (Homo sapiens, UniProt P43220). Nature of the series: GLP-1R activation, CRE-luciferase reporter gene assay in HEK 293 cells. Format: cell-based. For orientation: A reporter such as luciferase makes a cellular process visible.
A further series has as its system DIO mice. Nature of the series: Body weight in diet-induced obese. The format is in vivo. As to conditions: DIO male mice.
Another series has as its system ERα and ERβ. The format is cell-based, human.
The test system of another series is MCF-7 xenografts. Nature of the series: Tumor growth in MCF-7 xenograft OVX nude mice. The format is in vivo. As to conditions: for volume of harvested tumors / weight of harvested tumors: after 9 weeks of treatment, mean ± s.e.m.; for tumor incidence at day 68: conjugates 4,000 μg per kg body weight daily, estradiol as s.c. pellet.
Series [2] concerns the target T1, GLP-1R. Nature of the series: GLP-1R competitive binding.
The nature of series [3]: Conjugate degradation analysis in human plasma. Conditions: pH 7.4, 37 °C. Format: in vitro ADME.

T1 sequence (P43220 24-463, species assumed): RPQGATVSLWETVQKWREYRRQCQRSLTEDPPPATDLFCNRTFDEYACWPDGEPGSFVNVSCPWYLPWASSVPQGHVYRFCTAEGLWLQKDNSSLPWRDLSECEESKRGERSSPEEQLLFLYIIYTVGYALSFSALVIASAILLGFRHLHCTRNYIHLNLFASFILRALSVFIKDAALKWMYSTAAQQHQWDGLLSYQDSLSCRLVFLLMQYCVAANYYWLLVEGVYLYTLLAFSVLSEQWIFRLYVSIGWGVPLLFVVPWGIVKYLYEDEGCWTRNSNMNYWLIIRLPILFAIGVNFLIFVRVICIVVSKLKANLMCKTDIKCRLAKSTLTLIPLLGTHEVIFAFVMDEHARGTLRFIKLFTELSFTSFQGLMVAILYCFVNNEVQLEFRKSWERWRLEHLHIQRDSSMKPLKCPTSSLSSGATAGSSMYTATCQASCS

For the compound `CCCCCCCCCCCCCCCC(=O)N[C@@H](CCC(=O)N[C@@H](CCC(=O)NCCCC[C@H](NC(=O)[C@H](CO)NC(=O)[C@@H]1CCCN1C(=O)[C@@H]1CCCN1C(=O)[C@@H]1CCCN1C(=O)[C@H](C)NC(=O)CNC(=O)[C@H](CO)NC(=O)[C@H](CO)NC(=O)[C@@H]1CCCN1C(=O)CNC(=O)CNC(=O)[C@H](CCCCN)NC(=O)[C@@H](NC(=O)[C@H](CC(C)C)NC(=O)[C@H](Cc1c[nH]c2ccccc12)NC(=O)[C@H](C)NC(=O)[C@@H](NC(=O)[C@H](Cc1ccccc1)NC(=O)[C@H](CCC(=O)O)NC(=O)[C@H](CCCCN)NC(=O)[C@H](C)NC(=O)[C@H](C)NC(=O)[C@H](CCC(N)=O)NC(=O)[C@H](CCC(=O)O)NC(=O)[C@H](CCC(=O)O)NC(=O)[C@H](CC(C)C)NC(=O)[C@H](Cc1ccc(O)cc1)NC(=O)[C@H](CO)NC(=O)[C@H](CO)NC(=O)[C@@H](NC(=O)[C@H](CC(=O)O)NC(=O)[C@H](CO)NC(=O)[C@@H](NC(=O)[C@H](Cc1ccccc1)NC(=O)[C@@H](NC(=O)CNC(=O)[C@H](CCC(=O)O)NC(=O)C(C)(C)NC(=O)[C@@H](N)Cc1c[nH]cn1)[C@@H](C)O)[C@@H](C)O)C(C)C)[C@@H](C)CC)C(C)C)C(N)=O)C(=O)O)C(=O)O` [acylated GLP-1 analog], the “fold lower GLP-1R potency in presence of plasma” value on GLP-1R [1] (20% human plasma versus no plasma) is ~ 400 fold. In addition, the body weight loss in the series on DIO mice (400 μg per kg body weight daily s.c., 14 d (Fig. 5d)) was 30.1%.

For orientation: EC50 means the concentration needed to bring the measured effect to its halfway point. For the compound `C[C@]12CC[C@@H]3c4ccc(O)cc4CC[C@H]3[C@@H]1CC[C@@H]2O` [estradiol, 17β-estradiol, reference compound], the half-maximal effective concentration (EC50) in the series with ERα and ERβ (read-out: EC50, intracellular estrogen activity (ERE-mediated transcriptional activity), mean ± s.d.) came to 4 ± 1 pM. In addition, in the series on MCF-7 xenografts, the “volume of harvested tumors” value was 1,461.2 ± 584.3 mm^3, the “weight of harvested tumors” value is 779.7 ± 257.7 mg and the “tumor incidence at day 68” value came to 100%.

As for `CC[C@H](C)[C@H](NC(=O)[C@H](Cc1ccccc1)NC(=O)[C@H](CCC(=O)O)NC(=O)[C@H](CCCCN)NC(=O)[C@H](C)NC(=O)[C@H](C)NC(=O)[C@H](CCC(N)=O)NC(=O)[C@H](CCC(=O)O)NC(=O)[C@H](CCC(=O)O)NC(=O)[C@H](CC(C)C)NC(=O)[C@H](Cc1ccc(O)cc1)NC(=O)[C@H](CO)NC(=O)[C@H](CO)NC(=O)[C@@H](NC(=O)[C@H](CC(=O)O)NC(=O)[C@H](CO)NC(=O)[C@@H](NC(=O)[C@H](Cc1ccccc1)NC(=O)[C@@H](NC(=O)CNC(=O)[C@H](CCC(=O)O)NC(=O)C(C)(C)NC(=O)[C@@H](N)Cc1c[nH]cn1)[C@@H](C)O)[C@@H](C)O)C(C)C)C(=O)N[C@@H](C)C(=O)N[C@@H](Cc1c[nH]c2ccccc12)C(=O)N[C@@H](CC(C)C)C(=O)N[C@H](C(=O)N[C@@H](CCCCN)C(=O)NCC(=O)NCC(=O)N1CCC[C@H]1C(=O)N[C@@H](CO)C(=O)N[C@@H](CO)C(=O)NCC(=O)N[C@@H](C)C(=O)N1CCC[C@H]1C(=O)N1CCC[C@H]1C(=O)N1CCC[C@H]1C(=O)N[C@@H](CO)C(=O)N[C@@H](CCCCNC(=O)CCC(=O)Oc1ccc2c(c1)CC[C@@H]1[C@@H]2CC[C@]2(C)C(=O)CC[C@@H]12)C(N)=O)C(C)C` [labile GLP-1–estrogen conjugate], at GLP-1R [2], the “GLP-1R binding affinity (IC50) compared to parent peptide” value is listed as “matched the parent peptides”. Besides, the “GLP-1R biochemical signaling potency (EC50) compared to parent peptide” value at GLP-1R [1] is reported as “matched the parent peptides”. In addition, in the series with ERα and ERβ (cells do not express GLP-1R), the “intracellular estrogen activity compared to estrone” value was “comparable intracellular estrogen activity to estrone”. Besides, the “time to complete degradation with release of estrogen” value in series [3] is given as not above 6 h. In addition, the “decrease in body weight” value with DIO mice (400 μg per kg body weight daily s.c., 2 weeks) is 7.5%. In the series on DIO mice (400 μg per kg body weight daily s.c., 2 weeks, mean ± s.e.m.), the “body weight at end of treatment” value amounted to 50.0 ± 1.1 g. For the same compound, the “body weight at start of treatment” value in the series on DIO mice (400 μg per kg body weight, mean ± s.e.m.) was 54.1 ± 0.9 g. In addition, in the series with MCF-7 xenografts, the “volume of harvested tumors” value is listed as 92.1 ± 23.8 mm^3, the “weight of harvested tumors” value was found to be 37.0 ± 9.0 mg and the “tumor incidence at day 68” value stood at 100%.
